The values that follow come from patent US9573887B2, “Naphthalene derivative” (Daito Chemix Corporation, priority 2010, dated 2017).

Molecules are shown by their SMILES. Counter-ions that a name gives are not always drawn.

For this assay, the target named is T1, Mouse VCP (Mus musculus, UniProt Q01853).
T1 construct: histidine tag (N); made in house; host or cells: Sf-9 insect cells (baculovirus vector pVL1392)
T1 sequence (Q01853 whole entry): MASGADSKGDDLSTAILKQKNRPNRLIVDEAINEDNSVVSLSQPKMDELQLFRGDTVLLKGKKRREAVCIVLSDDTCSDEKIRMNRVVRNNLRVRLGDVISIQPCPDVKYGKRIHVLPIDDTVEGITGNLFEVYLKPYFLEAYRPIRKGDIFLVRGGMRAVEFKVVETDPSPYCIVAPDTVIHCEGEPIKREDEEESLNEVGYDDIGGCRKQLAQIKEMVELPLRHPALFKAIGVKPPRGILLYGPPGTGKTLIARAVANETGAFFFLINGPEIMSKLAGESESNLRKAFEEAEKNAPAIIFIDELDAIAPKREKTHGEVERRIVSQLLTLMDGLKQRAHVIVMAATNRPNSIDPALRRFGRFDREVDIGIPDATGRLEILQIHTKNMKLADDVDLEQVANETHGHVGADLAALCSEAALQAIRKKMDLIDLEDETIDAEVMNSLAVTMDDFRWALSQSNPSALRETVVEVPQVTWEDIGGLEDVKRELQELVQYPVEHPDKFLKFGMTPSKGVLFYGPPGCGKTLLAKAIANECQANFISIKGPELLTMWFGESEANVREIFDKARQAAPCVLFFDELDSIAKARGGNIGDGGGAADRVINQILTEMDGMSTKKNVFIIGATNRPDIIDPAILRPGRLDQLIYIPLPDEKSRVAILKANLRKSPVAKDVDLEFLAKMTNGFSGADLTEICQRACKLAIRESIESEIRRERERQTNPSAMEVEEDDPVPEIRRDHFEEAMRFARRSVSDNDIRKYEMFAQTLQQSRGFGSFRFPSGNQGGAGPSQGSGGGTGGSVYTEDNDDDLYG
Description: ATPase activity of purified His-tagged VCP, [γ-32P]ATP, liberated phosphate by liquid scintillation. It is filed as biochemical. Conditions: compounds of Examples; ATPase inhibitory activity; 500 ng VCP, 100 μM ATP, 37° C., 10 minutes. Put shortly:
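Liberated 32P-phosphate, extracted as a molybdate complex and counted by liquid scintillation, was the readout. Reactions used 500 ng Sf-9-expressed, Ni-purified His-VCP (mouse), 100 μM [γ-32P]ATP and varied test concentrations for 10 min at 37° C in HEPES pH 7.4 buffer with Mg2+ and DTT. IC50 derived by curve fitting.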
In the case of `Nc1c(/N=N/c2ccc(F)cc2Cl)cc(S(=O)(=O)O)c2ccccc12` [Example 119, 4-amino-3-(2-chloro-4-fluorophenylazo)naphthalene-1-sulfonic acid sodium salt], the half-maximal inhibitory concentration (IC50) turned out to be 0.737 µM.

For `Cc1ccc(/N=N/c2cc(S(=O)(=O)O)c3ccccc3c2N)c([N+](=O)[O-])c1` [Example 120, 4-amino-3-(4-methyl-2-nitrophenylazo)naphthalene-1-sulfonic acid sodium salt], the IC50 is 0.162 µM. As for `COc1cc([N+](=O)[O-])ccc1/N=N/c1cc(S(=O)(=O)O)c2ccccc2c1N` [Example 121, 4-amino-3-(2-methoxy-4-nitrophenylazo)naphthalene-1-sulfonic acid sodium salt], the IC50 worked out at 2.56 µM. For `Cc1ccc(/N=N/c2cc(S(=O)(=O)O)c3ccccc3c2N)cc1` [Example 122, 4-amino-3-p-tolylazonaphthalene-1-sulfonic acid sodium salt], the concentration for half-maximal inhibition (IC50) came out at 0.849 µM. For `Nc1c(/N=N/c2ccc(-c3cccnc3)cc2)cc(S(=O)(=O)O)c2ccccc12` [Example 123, 4-amino-3-(4-pyridine-3-ylphenylazo)-1-naphthalenesulfonic acid sodium salt], the 50% inhibitory concentration (IC50) came out at 0.274 µM.

Take `Nc1c(/N=N/c2ccc(C(=O)Nc3ccc(CC(C(=O)O)C(=O)O)cc3)cc2)cc(S(=O)(=O)O)c2ccccc12` [Example 124, 2-{4-[4-(1-amino-4-sulfonaphthalene-2-ylazo)benzoylamino]benzyl}malonic acid trisodium salt]: the half-inhibitory concentration (IC50) came to 4.01 µM. For `Cc1ccc(-c2ccc(/N=N/c3cc(S(=O)(=O)O)c4ccccc4c3N)cc2)cc1` [Example 125, 4-amino-3-(4′-methylbiphenyl-4-ylazo)naphthalene-1-sulfonic acid sodium salt], the IC50 was 0.417 µM. To `Cc1cccc(-c2ccc(/N=N/c3cc(S(=O)(=O)O)c4ccccc4c3N)cc2)c1` [Example 126, 4-amino-3-(3′-methylbiphenyl-4-ylazo)naphthalene-1-sulfonic acid sodium salt] belongs 0.343 µM; to `Nc1c(/N=N/c2ccc(-c3cncc4ccccc34)cc2)cc(S(=O)(=O)O)c2ccccc12` [Example 127, sodium salt], 0.295 µM; to `Nc1c(/N=N/c2c(Br)cc(-c3cccnc3)cc2Br)cc(S(=O)(=O)O)c2ccccc12` [Example 128, 4-amino-3-(2,6-dibromo-4-pyridine-3-ylphenylazo)naphthalene-1-sulfonic acid sodium salt], 0.128 µM. As for `Nc1c(/N=N/c2ccc(C(=O)Nc3ccccc3)cc2)cc(S(=O)(=O)O)c2ccccc12` [Example 129, 4-amino-3-(4-phenylcarbamoylphenylazo)naphthalene-1-sulfonic acid sodium salt], the IC50 stood at 1.9 µM. The value for `Nc1c(/N=N/c2cccc(C(=O)c3ccccc3)c2)cc(S(=O)(=O)O)c2ccccc12` [Example 130, 4-amino-3-(3-benzoylphenylazo)naphthalene-1-sulfonic acid sodium salt] was 0.26 µM; that for `Nc1c(/N=N/c2ccc(C(=O)c3ccccc3)cc2)cc(S(=O)(=O)O)c2ccccc12` [Example 131, 4-amino-3-(4-benzoylphenylazo)naphthalene-1-sulfonic acid sodium salt] was 0.242 µM.

With `Nc1c(/N=N/c2ccc(OCc3ccncc3)cc2)cc(S(=O)(=O)O)c2ccccc12` [Example 132, 4-amino-3-[4-(pyridine-4-ylmethoxy)phenylazo]naphthalene-1-sulfonic acid sodium salt], the IC50 was found to be 0.135 µM.

Turning to `CSc1ccccc1/N=N/c1cc(S(=O)(=O)O)c2ccccc2c1N` [Example 133, 4-amino-3-(2-methylsulfanylphenylazo)naphthalene-1-sulfonic acid sodium salt], the half-inhibitory concentration (IC50) was determined as 0.518 µM.

On to `CSc1ccc(/N=N/c2cc(S(=O)(=O)O)c3ccccc3c2N)cc1` [Example 134, 4-amino-3-(4-methylsulfanylphenylazo)naphthalene-1-sulfonic acid sodium salt], for which the IC50 worked out at 0.327 µM.

As for `Nc1c(/N=N/c2ccc(OCc3cccnc3)cc2)cc(S(=O)(=O)O)c2ccccc12` [Example 135, 4-amino-3-[4-(pyridine-3-ylmethoxy)phenylazo]naphthalene-1-sulfonic acid sodium salt], the concentration for half-maximal inhibition (IC50) came out at 0.716 µM. To `Nc1c(/N=N/c2ccc(OCc3ccccn3)cc2)cc(S(=O)(=O)O)c2ccccc12` [Example 136, 4-amino-3-[4-(pyridine-2-ylmethoxy)phenylazo]naphthalene-1-sulfonic acid sodium salt] belongs 0.601 µM. The value for `Nc1c(/N=N/c2cccc(OCc3ccccn3)c2)cc(S(=O)(=O)O)c2ccccc12` [Example 137, 4-amino-3-[3-(pyridine-2-ylmethoxy)phenylazo]naphthalene-1-sulfonic acid sodium salt] was 0.61 µM. To `Nc1c(/N=N/c2cccc(OCc3cccnc3)c2)cc(S(=O)(=O)O)c2ccccc12` [Example 138, 4-amino-3-[3-(pyridine-3-ylmethoxy)phenylazo]naphthalene-1-sulfonic acid sodium salt] belongs 0.516 µM. Take `Nc1c(/N=N/c2cccc(OCc3ccncc3)c2)cc(S(=O)(=O)O)c2ccccc12` [Example 139, 4-amino-3-[3-(pyridine-4-ylmethoxy)phenylazo]naphthalene-1-sulfonic acid sodium salt]: the concentration for half-maximal inhibition (IC50) was found to be 0.6 µM. The value for `Nc1c(/N=N/c2ccccc2OCc2ccccn2)cc(S(=O)(=O)O)c2ccccc12` [Example 140, 4-amino-3-[2-(pyridine-2-ylmethoxy)phenylazo]naphthalene-1-sulfonic acid sodium salt] was 0.596 µM; that for `Nc1c(/N=N/c2ccccc2OCc2ccncc2)cc(S(=O)(=O)O)c2ccccc12` [Example 141, 4-amino-3-[2-(pyridine-4-ylmethoxy)phenylazo]naphthalene-1-sulfonic acid sodium salt] was 0.747 µM; that for `Nc1c(/N=N/c2ccccc2OCc2cccnc2)cc(S(=O)(=O)O)c2ccccc12` [Example 142, 4-amino-3-[2-(pyridine-3-ylmethoxy)phenylazo]naphthalene-1-sulfonic acid sodium salt] was 0.243 µM. The value for `N#C/C(=C\c1ccc(/N=N/c2cc(S(=O)(=O)O)c3ccccc3c2N)cc1)c1ccccc1` [Example 143, 4-amino-3-[4-(2-cyano-2-phenylvinyl)phenylazo]naphthalene-1-sulfonic acid sodium salt] was 1.22 µM; that for `Cc1cc(F)ccc1-c1ccc(/N=N/c2cc(S(=O)(=O)O)c3ccccc3c2N)cc1F` [Example 144, 4-amino-3-(2,4′-difluoro-2′-methyl-diphenyl-4-ylazo)naphthalene-1-sulfonic acid sodium salt] was 0.199 µM. The value for `Nc1c(/N=N/c2cnc3ccccc3c2)cc(S(=O)(=O)O)c2ccccc12` [Example 145, 4-amino-3-(quinoline-3-ylazo)naphthalene-1-sulfonic acid sodium salt] was 0.295 µM; that for `COC(=O)c1sccc1/N=N/c1cc(S(=O)(=O)O)c2ccccc2c1N` [Example 146, methyl 3-(1-amino-4-sulfonaphthalene-2-ylazo)thiophene-2-carboxylate sodium salt] was 1.29 µM; that for `Nc1c(/N=N/c2ccc3ncccc3c2)cc(S(=O)(=O)O)c2ccccc12` [Example 147, 4-amino-3-(quinoline-6-ylazo)naphthalene-1-sulfonic acid sodium salt] was 0.502 µM.

On to `CCCCOc1c(OCC)cc(C=O)cc1-c1ccc(/N=N/c2cc(S(=O)(=O)O)c3ccccc3c2N)cn1` [Example 148, 4-amino-3-[6-(2-butoxy-3-ethoxy-5-formylphenyl)pyridine-3-ylazo]naphthalene-1-sulfonic acid sodium salt], for which the IC50 stood at 1.56 µM. As for `CCOc1c(C=O)cc(C)cc1-c1ccc(/N=N/c2cc(S(=O)(=O)O)c3ccccc3c2N)cn1` [Example 149, 4-amino-3-[6-(2-ethoxy-3-formyl-5-methylphenyl)pyridine-3-ylazo]naphthalene-1-sulfonic acid sodium salt], the IC50 worked out at 0.182 µM.
